Here are results for 8 compounds from patent US10793567B2, “Bicyclic inhibitors of histone deacetylase” (Rodin Therapeutics, Inc., priority 2017, dated 2020).

Structures are written as SMILES.

Experiment [1] addresses HDAC1 (Homo sapiens (Human), UniProt Q13547). Put plainly: HDAC1 enzymatic assay (Caliper LabChip, peptide deacetylation). It is filed as biochemical. The conditions noted are these: 17 hours, 25° C. Here is the method:
(§1) The following describes an assay protocol for measuring the deacetylation of a peptide substrate by the enzymes HDAC2 or HDAC1. Enzyme, substrate, and cofactors are combined in a well of a microtiter plate and incubated for […] at 25° C. At the end of the incubation, the reaction is quenched by the addition of an SDS-containing buffer. Substrate and product are separated and quantified electrophoretically using the microfluidic-based LabChip 3000 Drug Discovery System from Caliper Life Sciences. The peptide substrate used in this assay is FAM-TSRHK(AC)KL-CONH2 (FAM is carboxyfluorescein). Peptide should be >98% purity by Capillary Electrophoresis. • 1. To a well of a 384-well plate, add 5 μL of 2× enzyme buffer. Using Labcyte Echo 550, add 100 nl compound. Enzyme and compound may be pre-incubated at this time if desired. • 2. Add 5 μL of 2× substrate buffer. • 3. Incubate plate at 25° C. for 17 hours. • 4. Terminate reaction by adding 40 μL of 1.55× stop buffer. • 5. Create job on a Caliper LabChip® 3000 Drug Discovery System. • 6. Load the plate and start electrophoresis using blue laser (480 nm) for excitation and green CCD (520 nm) for detection (CCD2). Reaction time=17 hours; Reaction temperature=25° C.
1% DMSO (from compound) 1 μM FAM-TSRHK(AC)KL-CONH2 5 nM HDAC Enzyme (specific activity may vary from lot-to-lot, and enzyme concentration may need to be adjusted to yield˜10-20% conversion of substrate to product).
Substrate and product peptides present in each sample are separated electrophoretically using the LabChip 3000 capillary electrophoresis instrument. As substrate and product peptides are separated, two peaks of fluorescence are observed. Change in the relative fluorescence intensity of the substrate and product peaks is the parameter measured, reflecting enzyme activity. Capillary electrophoregramms (RDA acquisition files) are analyzed using HTS Well Analyzer software (Caliper Life Sciences). The […] in each sample is determined as the product to sum ratio (PSR): P/(S+P), where P is the peak height of the product peptide and S is the peak height of the substrate peptide. For each compound, enzyme activity is measured at various concentrations (12 concentrations of compound spaced by 3× dilution intervals). Negative control samples (0%-inhibition in the absence of inhibitor) and positive control samples (100%-inhibition, in the presence of 20 mM EDTA) are assembled in replicates of four and are used to calculate %-inhibition values for each compound at each concentration. Percent inhibition (Pinh) is determined using following equation: Pinh=(PSR0%−PSRinh)/(PSR0%−PSR100%)*100, where PSRinh is the product sum ratio in the presence of inhibitor, PSR0% is the average product sum ration in the absence of inhibitor and PSR100% is the average product sum ratio in 100%-inhibition control samples.
The IC50 values of inhibitors are determined by fitting the inhibition curves (Pinh versus inhibitor concentration) by 4 parameter sigmoidal dose-response model using XLfit 4 software (IBDS).
In the table, “A” indicates a […] of between 0.1 μM and 0.5 μM and “B” a Kd value of greater than 0.5 μM and less than or equal to 5.0 μM.

The target in experiment [2] is HDAC2 (Homo sapiens (Human), UniProt Q92769). Put plainly: HDAC2 enzymatic assay (Caliper LabChip, peptide deacetylation). The conditions noted are these: 17 hours, 25° C. In kind it is biochemical. Here is the method: as §1, with “Load the plate and start electrophoresis using blue laser (480 nm) for excitation and green CCD (520 nm) for detection (CCD2). Reaction time=17 hours; Reaction temperature=25° C.” left out
Chain of HDAC2 (Q92769 whole entry): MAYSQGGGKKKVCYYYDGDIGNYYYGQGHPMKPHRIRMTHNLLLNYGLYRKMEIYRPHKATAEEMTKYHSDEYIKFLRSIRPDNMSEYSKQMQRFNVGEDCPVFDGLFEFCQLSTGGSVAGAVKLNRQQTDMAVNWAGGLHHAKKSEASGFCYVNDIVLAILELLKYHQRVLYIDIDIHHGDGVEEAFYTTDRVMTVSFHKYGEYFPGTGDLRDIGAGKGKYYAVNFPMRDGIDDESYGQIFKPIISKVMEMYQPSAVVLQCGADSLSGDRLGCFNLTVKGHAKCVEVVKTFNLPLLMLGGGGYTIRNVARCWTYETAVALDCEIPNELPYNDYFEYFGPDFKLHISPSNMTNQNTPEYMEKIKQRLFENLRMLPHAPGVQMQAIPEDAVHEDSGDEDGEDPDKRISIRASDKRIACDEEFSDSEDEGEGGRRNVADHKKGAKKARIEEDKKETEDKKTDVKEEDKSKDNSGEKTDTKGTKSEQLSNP
Substrate and product peptides present in each sample are separated electrophoretically using the LabChip 3000 capillary electrophoresis instrument. As substrate and product peptides are separated, two peaks of fluorescence are observed. Change in the relative fluorescence intensity of the substrate and product peaks is the parameter measured, reflecting enzyme activity. Capillary electrophoregramms (RDA acquisition files) are analyzed using HTS Well Analyzer software (Caliper Life Sciences). The […] in each sample is determined as the product to sum ratio (PSR): P/(S+P), where P is the peak height of the product peptide and S is the peak height of the substrate peptide. For each compound, enzyme activity is measured at various concentrations (12 concentrations of compound spaced by 3× dilution intervals). […]
The IC50 values of inhibitors are determined by fitting the inhibition curves (Pinh versus inhibitor concentration) by 4 parameter sigmoidal dose-response model using XLfit 4 software (IBDS). […]

Chain of HDAC1 (Q13547 whole entry): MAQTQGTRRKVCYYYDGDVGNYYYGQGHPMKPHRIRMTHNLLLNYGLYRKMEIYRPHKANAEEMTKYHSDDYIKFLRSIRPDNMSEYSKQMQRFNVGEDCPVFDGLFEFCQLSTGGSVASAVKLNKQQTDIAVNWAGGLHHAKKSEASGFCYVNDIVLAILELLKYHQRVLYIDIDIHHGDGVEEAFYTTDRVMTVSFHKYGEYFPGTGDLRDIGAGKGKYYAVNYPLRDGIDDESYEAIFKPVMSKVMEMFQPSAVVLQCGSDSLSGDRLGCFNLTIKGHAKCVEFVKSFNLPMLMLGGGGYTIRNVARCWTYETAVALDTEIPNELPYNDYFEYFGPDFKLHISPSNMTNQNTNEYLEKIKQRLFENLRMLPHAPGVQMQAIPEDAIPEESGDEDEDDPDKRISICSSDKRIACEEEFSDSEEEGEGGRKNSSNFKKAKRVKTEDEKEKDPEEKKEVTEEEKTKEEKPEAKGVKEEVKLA

`Nc1ccc(-c2ccc(F)cc2)nc1NC(=O)N1Cc2cn(C3COC3)nc2C1` [Compound 1] showed an IC50 in experiment [1] of 500 to 5000 nM.

In experiment [1], `Cc1ncc2c(n1)CN(C(=O)Nc1nc(-c3ccc(F)s3)ccc1N)C2` [Compound 2] came in with an IC50 of 500 to 5000 nM.

Compound `CCc1ncc2c(n1)CN(C(=O)Nc1nc(-c3cccs3)ccc1N)C2` [Compound 3] displayed a concentration for half-maximal inhibition (IC50) in experiment [1] of 500 to 5000 nM.

Turning to `Cc1ncc(-c2ccc(N)c(NC(=O)N3Cc4cn(CC(F)F)nc4C3)n2)s1` [Compound 5], the IC50 in experiment [1] fell in the range of 500 to 5000 nM.

As to `CCc1cc2c(cn1)CN(C(=O)Nc1nc(-c3cccnc3)ccc1N)C2` [Compound 8], the half-maximal inhibitory concentration (IC50) in experiment [2] and in experiment [1] was 500 to 5000 nM in each case.

Turning to `COCCn1cc2c(n1)CN(C(=O)Nc1nc(-c3ccc(F)cc3F)ccc1N)C2` [Compound 9], the IC50 in experiment [1] fell in the range of 500 to 5000 nM.

Consider `Cc1ncc2c(n1)CN(C(=O)Nc1nc(-c3ccc(F)cc3)ccc1N)C2` [Compound 14], for which the IC50 in experiment [1] lay in the range of 500 to 5000 nM.

Turning to `CCc1ncc2c(n1)CN(C(=O)Nc1nc(-c3ccc(F)cc3)ccc1N)C2` [Compound 17], the concentration for half-maximal inhibition (IC50) in experiment [2] and in experiment [1] was 500 to 5000 nM each time.
